Source: US7192746B2, “α-Isomaltosyltransferase, process for producing the same and use thereof” (Kabushiki Kaisha Hayashibara Seibutsu Kagaku Kenkyujo, priority 2000, dated 2007)
Like-named read-outs stand apart in the source and are kept apart here.

Columns and labels:
mice = assay: Acute toxicity test; assay type: in vivo, mouse; conditions: oral
Excerpt: Based on this, the LD50 of cyclotetrasaccharide was at least 50 g/kg mouse body weight.

[1] = tested on: small intestinal mucosal enzyme
salivary amylase = molecular target: T1, salivary amylase (Homo sapiens, UniProt P0DUB6)
T1 sequence (P0DUB6 16-511): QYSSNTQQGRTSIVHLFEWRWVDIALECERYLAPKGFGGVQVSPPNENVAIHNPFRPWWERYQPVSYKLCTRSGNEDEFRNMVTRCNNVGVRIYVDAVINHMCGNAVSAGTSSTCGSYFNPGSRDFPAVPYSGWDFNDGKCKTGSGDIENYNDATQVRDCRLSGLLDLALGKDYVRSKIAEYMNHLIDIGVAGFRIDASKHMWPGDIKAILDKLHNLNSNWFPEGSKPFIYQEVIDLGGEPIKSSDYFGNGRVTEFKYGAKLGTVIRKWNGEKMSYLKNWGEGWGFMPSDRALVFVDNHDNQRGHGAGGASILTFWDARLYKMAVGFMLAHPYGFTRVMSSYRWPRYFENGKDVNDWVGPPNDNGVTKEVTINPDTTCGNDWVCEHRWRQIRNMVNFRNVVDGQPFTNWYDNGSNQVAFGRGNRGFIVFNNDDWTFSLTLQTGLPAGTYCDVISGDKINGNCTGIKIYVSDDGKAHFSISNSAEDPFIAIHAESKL

[2] = tested on: Eubacterium aerofaciens ATCC 25986 strain; assay: Assimilation test; assay type: cell-based; conditions: PYF medium with 0.5% saccharide, 37° C., four days, anaerobic
[3] = tested on: α-isomaltosyl-transferring enzyme from Bacillus globisporus C9; assay: Action on saccharides (substrates, TLC); assay type: biochemical; design: key: −: there was found no substrate change before and after the enzymatic reaction; +: there were found both the reduction of substrate and the formation of cyclotetrasaccharide after the enzymatic reaction; conditions: 2 units/g substrate, 2% (w/v) substrate, 30° C., pH 6.0, 24 hours
In short: (§1)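 Purified enzyme (2 units/g substrate) was incubated with each saccharide at 2% (w/v), pH 6.0, 30° C. for 24 hours. Reaction mixtures before and after incubation were run on silica gel TLC in n-butanol/pyridine/water (6:4:1), with total sugars stained by sulfuric acid-methanol and reducing sugars by diphenylamine-aniline.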

[4] = tested on: α-isomaltosyl-transferring enzyme from Arthrobacter ramosus S1; assay: Action on saccharides (substrates, TLC); assay type: biochemical; design: key: −: there was found no substrate change before and after the enzymatic reaction; +: there were found both the reduction of substrate and the formation of cyclotetrasaccharide after the enzymatic reaction; conditions: 2 units/g substrate, 2% (w/v) substrate, 30° C., pH 6.0, 24 hours
In short: as §1

[5] = tested on: α-isomaltosyl-transferring enzyme from Bacillus globisporus N75; assay: Action on saccharides (substrates, TLC); assay type: biochemical; design: key: −: there was found no substrate change before and after the enzymatic reaction; +: there were found both the reduction of substrate and the formation of cyclotetrasaccharide after the enzymatic reaction; conditions: 2 units/g substrate, 2% (w/v) substrate, 30° C., pH 6.0, 24 hours
In short: as §1

[6] = tested on: α-isomaltosyl-transferring enzyme from Bacillus globisporus C11; assay: Action on saccharides (substrates, TLC); assay type: biochemical; design: key: −: there was found no substrate change before and after the enzymatic reaction; +: there were found both the reduction of substrate and the formation of cyclotetrasaccharide after the enzymatic reaction; conditions: 2 units/g substrate, 2% (w/v) substrate, 30° C., pH 6.0, 24 hours
In short: as §1

[7] = tested on: α-isomaltosyl-transferring enzyme from Arthrobacter globiformis A19; assay: Action on saccharides (substrates, TLC); assay type: biochemical; design: key: −: there was found no substrate change before and after the enzymatic reaction; +: there were found both the reduction of substrate and the formation of cyclotetrasaccharide after the enzymatic reaction; conditions: partially purified enzyme, 2 units/g substrate, 2% (w/v) substrate, 30° C., pH 6.0, 24 hours
In short: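 Substrates 2% (w/v), enzyme 2 units/g substrate, pH 6.0, 30° C., 24 h. Read-out: silica TLC, n-butanol:pyridine:water 6:4:1; sulfuric acid-methanol (total sugar) and diphenylamine-aniline (reducing sugar) staining, pre- vs post-reaction.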

Digestion test in vitro = conditions: Synthetic gastric juice
[8] = tested on: small intestinal mucosal enzyme; assay: Digestion test in vitro
amylopsin = molecular target: T2, amylopsin (Homo sapiens, UniProt P04746); assay: Digestion test in vitro
T2 sequence (P04746 16-511): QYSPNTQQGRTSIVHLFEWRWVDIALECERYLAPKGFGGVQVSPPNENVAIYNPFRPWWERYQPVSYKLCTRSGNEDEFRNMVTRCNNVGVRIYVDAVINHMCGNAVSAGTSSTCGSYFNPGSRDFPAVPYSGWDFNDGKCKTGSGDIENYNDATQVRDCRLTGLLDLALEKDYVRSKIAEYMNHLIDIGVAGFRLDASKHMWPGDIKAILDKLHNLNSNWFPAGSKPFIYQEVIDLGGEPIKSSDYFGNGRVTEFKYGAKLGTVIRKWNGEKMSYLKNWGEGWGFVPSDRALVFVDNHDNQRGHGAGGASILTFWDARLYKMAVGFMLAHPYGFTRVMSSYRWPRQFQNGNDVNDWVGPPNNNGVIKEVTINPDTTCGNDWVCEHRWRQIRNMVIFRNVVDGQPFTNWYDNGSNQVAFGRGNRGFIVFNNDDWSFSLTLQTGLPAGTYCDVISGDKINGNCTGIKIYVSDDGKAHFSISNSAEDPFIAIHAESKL

Row | Structure (SMILES) | Death at highest possible dose (mice) | LD50 (mice) | Decomposition percentage by digestive enzyme [1] [%] | Digestibility by intestinal mucosal enzyme relative to maltitol [1] | Decomposition percentage by digestive enzyme (salivary amylase) [%] | Assimilability [2] | Enzymatic action for forming cyclotetrasaccharide, Enzyme of Strain C9 [3] | Enzymatic action for forming cyclotetrasaccharide, Enzyme of Strain S1 [4] | Enzymatic action for forming cyclotetrasaccharide, Enzyme of Strain N75 [5] | Enzymatic action for forming cyclotetrasaccharide, Enzyme of Strain C11 [6] | Enzymatic action for forming cyclotetrasaccharide, Enzyme of Strain A19 [7] | Decomposition percentage by digestive enzyme (Digestion test in vitro) [%] | Decomposition percentage by digestive enzyme [8] [%] | Decomposition percentage by digestive enzyme (amylopsin) [%]
1 | OCC1OC2OCC3O[C@H](O[C@H]4C(O)C(CO)OC(OCC5O[C@H](O[C@@H](C1O)C2O)C(O)C(O)[C@@H]5O)C4O)C(O)C(O)[C@@H]3O (stereo partly drawn) [Cyclotetrasaccharide, cyclo{→6)-α-D-glucopyranosyl-(1→3)-α-D-glucopyranosyl-(1→6)-α-D-glucopyranosyl-(1→3)-α-D-glucopyranosyl-(1→}] | did not induce death of mouse | at least 50 g/kg mouse body weight | 0.74 | ⅕ | 0.0 | − (negative (−) when the post culture had a pH of 6.0 or higher) |  |  |  |  |  |  |  | 
2 | OC[C@@H](O)[C@@H](O[C@H]1O[C@H](CO)[C@@H](O)[C@H](O)[C@H]1O)[C@H](O)[C@@H](O)CO [Maltitol, maltitol] |  |  |  |  |  |  | − | − | − | − | − | 0.0 | 4.0 | 0.0
